Measurements taken from US11634702B2, “Cell signaling pathway activation by local AC electric field” (ARIZONA BOARD OF REGENTS ON BEHALF OF ARIZONA STATE …, priority 2018, dated 2023).

System: EGFR-Ras-ERK signaling pathway in MCF10A cells
Experiment: ERK activation by AC EF stimulation (ERKTR reporter) in blocker tests
Assay type: cell-based

| SMILES | effect on ERK activation under AC EF stimulation (Trolox 350 μM) | effect on ERK activation under AC EF stimulation (BAPTA AM 3 μM) |
| --- | --- | --- |
| Cc1c(C)c2c(c(C)c1O)CCC(C)(C(=O)O)O2 (centres unmarked) [Trolox] | neither Ca2+ chelator (BAPTA AM, 3 μM, Life Technologies), nor ROS quencher (Trolox, 350 μM, Sigma-Aldrich) could block the EF activation of ERK | – |
| CC(=O)OCOC(=O)CN(CC(=O)OCOC(C)=O)c1ccccc1OCCOc1ccccc1N(CC(=O)OCOC(C)=O)CC(=O)OCOC(C)=O [BAPTA AM] | – | neither Ca2+ chelator (BAPTA AM, 3 μM, Life Technologies), nor ROS quencher (Trolox, 350 μM, Sigma-Aldrich) could block the EF activation of ERK |
